The values that follow come from paper PMC8331180, “Development of antibacterial compounds that constrain evolutionary pathways to resistance” (eLife, 2021).

Assay [1] has as its target T1, E. coli WT DHFR (Escherichia coli, UniProt P0ABQ4).
T1 construct: made in house
T1 sequence (P0ABQ4 1-159): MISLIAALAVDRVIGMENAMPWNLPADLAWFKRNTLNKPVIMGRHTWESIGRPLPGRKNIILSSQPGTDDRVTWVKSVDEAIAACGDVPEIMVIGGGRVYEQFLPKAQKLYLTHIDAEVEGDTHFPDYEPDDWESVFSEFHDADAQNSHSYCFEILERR
In words: biochemical. As to conditions: for Ki: Ki value, E. coli WT DHFR, Ki converted from IC50; for inhibition at 200 µM: read-out: inhibition of DHFR catalytic activity.

Assay [2] deals with T2, E. coli DHFR P21L mutant (Escherichia coli, UniProt P0ABQ4, P21L).
T2 construct: made in house
T2 sequence (P0ABQ4 1-159 P21L): T1 sequence (P0ABQ4 1-159) with P21L
Put plainly: biochemical. As to conditions: for Ki: Ki value, E. coli P21L DHFR, Ki converted from IC50; for inhibition at 200 µM: read-out: inhibition of DHFR catalytic activity.

The target in assay [3] is T3, E. coli DHFR A26T mutant (Escherichia coli, UniProt P0ABQ4, A26T).
T3 construct: made in house
T3 sequence (P0ABQ4 1-159 A26T): T1 sequence (P0ABQ4 1-159) with A26T
Put plainly: biochemical. As to conditions: for Ki: Ki value, E. coli A26T DHFR, Ki converted from IC50; for inhibition at 200 µM: read-out: inhibition of DHFR catalytic activity.

Assay [4] addresses T4, E. coli DHFR L28R mutant (Escherichia coli, UniProt P0ABQ4, L28R).
T4 construct: made in house
T4 sequence (P0ABQ4 1-159 L28R): T1 sequence (P0ABQ4 1-159) with L28R
Put plainly: biochemical. As to conditions: for Ki: Ki value, E. coli L28R DHFR, Ki converted from IC50; for inhibition at 200 µM: read-out: inhibition of DHFR catalytic activity.

Assay [5] deals with E. coli strain with chromosomal P21L DHFR. Put plainly: microbe, parasite or virus in culture. The assay is classed as cell-based. Conditions: Escherichia coli, read-out: Bacterial growth inhibition IC50.
The test system of assay [6] is E. coli strain with chromosomal A26T DHFR. Put plainly: microbe, parasite or virus in culture. It is filed as cell-based. Conditions: Escherichia coli, read-out: Bacterial growth inhibition IC50.
For assay [7], the system named is E. coli strain with chromosomal L28R DHFR. Put plainly: microbe, parasite or virus in culture. The assay is classed as cell-based. As to conditions: for IC50: Escherichia coli, read-out: Bacterial growth inhibition IC50.
Assay [8] deals with WT E. coli strain. Put plainly: microbe, parasite or virus in culture. As to conditions: Escherichia coli.
In assay [9] the target is T5, Human DHFR (Homo sapiens, UniProt P00374).
T5 construct: purchased Sigma Aldrich
Put plainly: biochemical. As to conditions: for Ki: Human WT DHFR, NT means no inhibition was detected at the maximal compound concentration tested. It is filed as biochemical.

Assay [10] relates to CD15-3-evolved E. coli strains. In words: microbe, parasite or virus in culture. The assay is classed as cell-based. Conditions: Escherichia coli.
The test system of assay [11] is E. coli BW27783. The assay is classed as cell-based.
Assay [12] deals with WT E. coli strain. As to conditions: read-out: Bacterial growth inhibition IC50; WT (naive) E. coli strain, M9 medium, 37°C.
The test system of assay [13] is WT and evolved E. coli cells. In words: DIC imaging of cell length. As to conditions: 42°C.
Assay [14] addresses T6, E. coli DHFR P21L-A26T mutant (Escherichia coli, UniProt P0ABQ4, A26T/P21L).
T6 construct: made in house
T6 sequence (P0ABQ4 1-159 P21L/A26T): T1 sequence (P0ABQ4 1-159) with P21L, A26T
In words: biochemical.

Assay [15] addresses T7, E. coli DHFR P21L-L28R mutant (Escherichia coli, UniProt P0ABQ4, L28R/P21L).
T7 construct: made in house
T7 sequence (P0ABQ4 1-159 P21L/L28R): T1 sequence (P0ABQ4 1-159) with P21L, L28R
In words: biochemical.

Assay [16] has as its target T8, E. coli DHFR A26T-L28R mutant (Escherichia coli, UniProt P0ABQ4, A26T/L28R).
T8 construct: made in house
T8 sequence (P0ABQ4 1-159 A26T/L28R): T1 sequence (P0ABQ4 1-159) with A26T, L28R
Put plainly: biochemical.

Setting [17] is: single fixed concentration of 200 µM, WT DHFR.
Where [18] appears, read: single fixed concentration of 200 µM, P21L DHFR.
The mark [19] stands for this setting: single fixed concentration of 200 µM, A26T DHFR.
The mark [20] stands for this setting: single fixed concentration of 200 µM, L28R DHFR.
The mark [21] stands for this setting: read-out: Bacterial growth inhibition IC50, WT (naive) E. coli strain, M9 medium, 37°C.

Residue numbers refer to the chain shown, from its start. Where “and” joins values, the source holds several entries; their conditions need not be identical. Equal values may be shown once. Read-outs that look alike come from different tables or passages of the source.

What is called Ki is a dissociation constant, usually derived from enzyme kinetics or from competition with a known ligand. For orientation: inhibition means how much of the control response was suppressed. Consider `COc1cc([C@H]2CC(=O)Nc3nc(N)[nH]c(=O)c32)ccc1O` [CD08], for which the inhibition constant (Ki) in assay [1] was determined as 6.9 ± 0.6 µM; in assay [2] it was 3.2 ± 0.4 µM; in assay [3] it was 4.9 ± 1.4 µM; in [4], 3.1 ± 0.6 µM. Further, the inhibition at 200 µM in [1] (setting [17]), in [2] (setting [18]), in assay [3] (setting [19]) and in [4] (setting [20]) was > 30% throughout.
As usually defined, the IC50 is the midpoint of a concentration-inhibition curve. For the molecule `COc1ccc([C@@H]2CC(c3c(O)[nH]c(=O)n(C)c3=O)=NN2)cc1O` [CD15-2], the IC50 in assay [5] came out at 125 µM; in assay [6], 119 µM; in [7], 88 µM; in assay [8] (setting [21]), 129 µM.
As for `Cn1c(=O)[nH]c(O)c(C2=NN[C@H](c3cccc4ccccc34)C2)c1=O` [CD15-3], the Ki in assay [1] amounted to 5.52 µM; in [2], 2.51 µM; in assay [3], 3.48 µM; in assay [4], 0.98 µM. For the same molecule, the “inhibitory activity against human DHFR” value in assay [9] (CD15-3 17.56–200 µM, 25°C) was “no inhibitory activity”. For the same molecule, the IC50 in assay [5] turned out to be 57 µM; in assay [6], 73 µM; in assay [7] it was 48 µM; in assay [10] (CD15-3-evolved strain Evolved 1, M9 media) it was 132 µM; in assay [10] (CD15-3-evolved strain Evolved 2, M9 media), 166 µM; in assay [10] (CD15-3-evolved strain Evolved 3, M9 media) it was 170 µM. For the same molecule, the IC50 in assay [10] (range over strains evolved under CD15-3, read-out: IC50 of evolved strains) is 132 to 170 µM; in assay [12], 72 µM; in assay [8] (setting [21]) it was 71.8 µM; in assay [8] (read-out: IC50 against WT and TMP-resistant strains), 50 to 75 µM. Besides, the “efficacy relative to TMP on L28R E. coli variant strain” value in [7] (growth inhibition IC50, better than TMP) is “about 2.4 fold”. The “effect of folA mix supplement on drug-induced growth inhibition” value in [11] (M9 media with folA mix) was “partially rescued”. Also, the “effect of inactive D27F DHFR overexpression on drug-induced growth inhibition” value in assay [11] (pBAD D27F, 0.005% arabinose) is reported as “no growth recovery”. Moreover, the “effect of WT DHFR overexpression on drug-induced growth inhibition” value in assay [11] (pBAD folA, 0.005% arabinose) was “partially rescued growth”. Also, the median cell length came to 2.34 µm in [13] (WT cells treated at IC50 concentration, 4 hours) and 1.26 µm in assay [13] (evolved cells treated at IC50 concentration).
As to `Cn1c(=O)[nH]c(O)c(C2=NN[C@H](c3ccc4c(c3)OCO4)C2)c1=O` [CD15-4], the IC50 in assay [5] came to 92 µM; in assay [6] it was 123 µM; in assay [7], 67 µM; in assay [8] (setting [21]), 302 µM.
For `COc1cc([C@@H]2CC(c3c(O)[nH]c(=O)n(C)c3=O)=NN2)cc(OC)c1OC` [CD15-6], in that order: 159 µM, 172 µM, 167 µM and 175 µM.
For `COc1ccc([C@@H]2CC(c3c(O)[nH]c(=O)n(C)c3=O)=NN2)cc1OC` [CD15], the Ki in assay [1] is 3.35 µM; in [2], 1.42 µM; in assay [3], 2.43 µM; in assay [4], 1.04 µM; in [14], 3.26 µM; in assay [15], 0.56 µM. Moreover, the Ki in [16] was 0.61 µM; in [9], 0.38 µM. The inhibition at 200 µM in assay [1] (setting [17]), in [2] (setting [18]), in [3] (setting [19]) and in [4] (setting [20]) was > 30% throughout. The IC50 was 176 µM in assay [5], 197 µM in assay [6], 159 µM in assay [7] and 170 µM in [8] (setting [21]).
For the molecule `C[C@H](Oc1ccc(C=C2C(=O)NC(=O)NC2=O)cc1)C(=O)O` [CD17-3], the IC50 in assay [5] came to 2840 µM; in [6], 2150 µM; in assay [7], 907 µM; in [8] (setting [21]) it was 2950 µM.
Turning to `O=C(O)COc1c(Cl)cc(C=C2C(=O)NC(=O)NC2=O)cc1Cl` [CD17-4], the IC50 in [7] was 1860 µM.
With `CCOc1cc(C=C2C(=O)NC(=O)NC2=O)ccc1OCC(=O)O` [CD17], the Ki is 8.2 µM and 8.18 µM in assay [1]; 3.7 µM in [2]; 6.7 µM and 6.73 µM in assay [3]; 3.7 µM and 3.65 µM in assay [4]; 9.2 µM in [14]; 1.37 µM in assay [15]. The values for the Ki in assay [16] and in assay [9] were 2.04 µM and 0.74 µM, respectively. The inhibition at 200 µM in assay [1] (setting [17]), in [2] (setting [18]), in [3] (setting [19]) and in assay [4] (setting [20]) was > 30% in each case. Besides, the IC50 in assay [5] was 5050 µM; in [6], 1920 µM; in [7], 932 µM; in assay [8] (setting [21]) it was 1770 µM.
As to `CSc1nc2nc(N)nc(N)c2s1` [CD20], the “inhibition of DHFR catalytic activity” value is listed as “showed inhibition” in assay [1] (setting [17]), “showed inhibition” in [2] (setting [18]), “showed inhibition” in assay [3] (setting [19]) and “not” in [4] (setting [20]).
Regarding `Cc1cc(NS(=O)(=O)c2ccc(N)cc2)no1` [Sulfamethoxazole, reference compound], the IC50 is 6.7 µM in assay [10] (CD15-3-evolved cells, cross resistance test, growth rate) and 2.9 µM in assay [8].
For `COc1cc(Cc2cnc(N)nc2N)cc(OC)c1OC` [TMP, trimethoprim, reference compound], the IC50 in assay [8] was found to be 0.4 µg/mL; in [8] (read-out: Bacterial growth inhibition IC50), 1.3 µM.
